What all share (assay type): cell-based
Common to all, as to details: compounds at 50 nM and 500 nM, 24 hours

One test deals with T1, IKZF2 (Homo sapiens, UniProt Q96SW2+Q9UKS7).
T1 construct: effects of the compounds of the present disclosure on the expression of target proteins in cells; endogenous in cells; host or cells: human PBMCs (hPBMCs)
Nature of the test: Western-blot assay, substrate protein degradation in hPBMCs: IKZF2.

The next test has as its target T2, WEE1 (Homo sapiens, UniProt P30291+Q96SW2).
T2 construct: effects of the compounds of the present disclosure on the expression of target proteins in cells; endogenous in cells; host or cells: human PBMCs (hPBMCs)
Description: Western-blot assay, substrate protein degradation in hPBMCs: WEE1.

Another test addresses T3, GSPT1 (Homo sapiens, UniProt P15170+Q96SW2).
T3 construct: effects of the compounds of the present disclosure on the expression of target proteins in cells; endogenous in cells; host or cells: human PBMCs (hPBMCs)
Nature of the test: Western-blot assay, substrate protein degradation in hPBMCs: GSPT1.

The target in a further test is T4, IKZF3 (Homo sapiens, UniProt Q96SW2+Q9UKT9).
T4 construct: effects of the compounds of the present disclosure on the expression of target proteins in cells; endogenous in cells; host or cells: human PBMCs (hPBMCs)
T4 sequence (Q9UKT9 whole entry): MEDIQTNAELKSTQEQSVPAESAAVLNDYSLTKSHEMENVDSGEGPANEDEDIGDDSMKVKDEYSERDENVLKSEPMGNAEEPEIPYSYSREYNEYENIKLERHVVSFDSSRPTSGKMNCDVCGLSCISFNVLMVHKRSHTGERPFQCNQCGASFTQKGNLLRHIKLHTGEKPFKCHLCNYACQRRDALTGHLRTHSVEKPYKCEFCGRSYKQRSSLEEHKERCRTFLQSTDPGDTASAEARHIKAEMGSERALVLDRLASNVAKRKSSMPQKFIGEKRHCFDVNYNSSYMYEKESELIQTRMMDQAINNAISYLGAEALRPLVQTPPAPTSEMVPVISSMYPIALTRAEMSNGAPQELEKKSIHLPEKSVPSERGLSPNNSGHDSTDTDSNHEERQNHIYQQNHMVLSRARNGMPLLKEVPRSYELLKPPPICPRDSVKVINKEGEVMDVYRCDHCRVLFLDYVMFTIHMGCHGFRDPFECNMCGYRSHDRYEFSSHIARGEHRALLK
T4 sequence (Q96SW2 whole entry): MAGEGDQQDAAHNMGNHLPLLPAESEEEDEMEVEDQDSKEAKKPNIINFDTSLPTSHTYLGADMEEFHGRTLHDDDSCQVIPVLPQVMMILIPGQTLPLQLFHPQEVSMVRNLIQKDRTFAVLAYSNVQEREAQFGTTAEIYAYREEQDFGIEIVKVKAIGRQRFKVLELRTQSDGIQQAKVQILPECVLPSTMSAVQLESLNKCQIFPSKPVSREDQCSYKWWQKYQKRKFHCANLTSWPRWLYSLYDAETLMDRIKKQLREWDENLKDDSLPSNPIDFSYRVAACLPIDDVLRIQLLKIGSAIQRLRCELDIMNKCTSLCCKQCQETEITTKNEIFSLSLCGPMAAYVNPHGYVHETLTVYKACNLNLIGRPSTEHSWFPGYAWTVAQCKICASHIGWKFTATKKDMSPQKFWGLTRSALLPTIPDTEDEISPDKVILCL
T4 sequence (Q16531 whole entry partner): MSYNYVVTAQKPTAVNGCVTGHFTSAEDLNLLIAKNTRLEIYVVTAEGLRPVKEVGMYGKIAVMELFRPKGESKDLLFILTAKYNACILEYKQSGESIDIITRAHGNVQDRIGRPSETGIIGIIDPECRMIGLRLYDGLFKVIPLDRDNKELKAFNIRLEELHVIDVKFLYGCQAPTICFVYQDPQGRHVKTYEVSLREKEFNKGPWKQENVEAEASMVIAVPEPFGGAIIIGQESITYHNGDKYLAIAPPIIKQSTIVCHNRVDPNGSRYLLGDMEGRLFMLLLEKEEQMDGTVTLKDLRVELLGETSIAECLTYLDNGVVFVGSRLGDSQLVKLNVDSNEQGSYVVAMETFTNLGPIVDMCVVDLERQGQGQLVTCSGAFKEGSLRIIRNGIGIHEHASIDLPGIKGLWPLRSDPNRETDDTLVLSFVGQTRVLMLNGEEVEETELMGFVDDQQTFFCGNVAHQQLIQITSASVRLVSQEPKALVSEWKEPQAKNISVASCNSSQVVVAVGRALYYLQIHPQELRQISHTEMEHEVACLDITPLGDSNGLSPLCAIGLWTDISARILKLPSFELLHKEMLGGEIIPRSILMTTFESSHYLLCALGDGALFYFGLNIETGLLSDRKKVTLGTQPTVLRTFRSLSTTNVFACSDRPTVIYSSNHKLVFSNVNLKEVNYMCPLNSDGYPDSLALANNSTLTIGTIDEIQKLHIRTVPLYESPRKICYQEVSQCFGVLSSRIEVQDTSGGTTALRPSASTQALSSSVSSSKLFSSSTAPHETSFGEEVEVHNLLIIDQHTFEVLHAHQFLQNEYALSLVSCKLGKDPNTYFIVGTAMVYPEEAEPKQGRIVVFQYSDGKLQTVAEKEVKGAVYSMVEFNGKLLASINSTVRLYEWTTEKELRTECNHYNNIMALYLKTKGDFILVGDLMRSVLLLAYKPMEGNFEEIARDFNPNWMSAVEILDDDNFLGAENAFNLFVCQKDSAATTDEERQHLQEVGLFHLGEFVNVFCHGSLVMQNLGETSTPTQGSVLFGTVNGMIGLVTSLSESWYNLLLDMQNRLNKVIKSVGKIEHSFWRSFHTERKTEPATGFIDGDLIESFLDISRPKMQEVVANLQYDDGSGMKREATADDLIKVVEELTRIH
Nature of the test: Western-blot assay, substrate protein degradation in hPBMCs: IKZF3.

For a further test, the target named is T5, IKZF1 (Homo sapiens, UniProt Q13422+Q96SW2).
T5 construct: effects of the compounds of the present disclosure on the expression of target proteins in cells; endogenous in cells; host or cells: human PBMCs (hPBMCs)
Description: Western-blot assay, substrate protein degradation in hPBMCs: IKZF1.

In the next test the target is T6, CK1α (Homo sapiens, UniProt P48729+Q96SW2).
T6 construct: effects of the compounds of the present disclosure on the expression of target proteins in cells; endogenous in cells; host or cells: human PBMCs (hPBMCs)
T6 sequence (P48729 whole entry): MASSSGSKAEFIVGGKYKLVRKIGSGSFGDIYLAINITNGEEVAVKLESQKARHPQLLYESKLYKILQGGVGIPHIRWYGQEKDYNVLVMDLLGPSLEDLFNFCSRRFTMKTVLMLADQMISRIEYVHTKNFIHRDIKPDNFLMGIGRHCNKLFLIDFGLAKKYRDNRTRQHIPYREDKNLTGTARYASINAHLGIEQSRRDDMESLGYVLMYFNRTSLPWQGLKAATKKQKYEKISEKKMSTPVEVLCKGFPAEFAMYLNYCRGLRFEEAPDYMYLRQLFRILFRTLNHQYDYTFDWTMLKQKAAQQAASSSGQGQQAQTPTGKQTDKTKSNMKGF
T6 sequence (Q96SW2 whole entry): as the sequence (Q96SW2 whole entry) above
T6 sequence (Q16531 whole entry partner): as the sequence (Q16531 whole entry partner) above
Nature of the test: Western-blot assay, substrate protein degradation in hPBMCs: CK1α.

Molecules are shown by their SMILES.

T3 sequence (P15170 whole entry): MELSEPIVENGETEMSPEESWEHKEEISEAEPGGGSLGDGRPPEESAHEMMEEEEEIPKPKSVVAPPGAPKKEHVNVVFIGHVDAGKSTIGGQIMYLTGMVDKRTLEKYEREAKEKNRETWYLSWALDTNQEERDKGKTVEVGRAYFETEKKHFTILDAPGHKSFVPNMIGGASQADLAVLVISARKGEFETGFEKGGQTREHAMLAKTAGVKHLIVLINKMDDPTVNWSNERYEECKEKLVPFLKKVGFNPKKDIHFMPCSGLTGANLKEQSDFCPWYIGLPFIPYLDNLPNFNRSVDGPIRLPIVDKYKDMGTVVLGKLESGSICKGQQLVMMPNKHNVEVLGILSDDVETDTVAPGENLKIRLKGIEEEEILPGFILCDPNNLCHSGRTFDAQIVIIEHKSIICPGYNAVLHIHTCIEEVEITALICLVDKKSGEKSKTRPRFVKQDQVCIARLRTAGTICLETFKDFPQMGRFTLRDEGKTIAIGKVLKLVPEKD
T3 sequence (Q96SW2 whole entry): as the sequence (Q96SW2 whole entry) above
T3 sequence (Q16531 whole entry partner): as the sequence (Q16531 whole entry partner) above
T2 sequence (P30291 whole entry): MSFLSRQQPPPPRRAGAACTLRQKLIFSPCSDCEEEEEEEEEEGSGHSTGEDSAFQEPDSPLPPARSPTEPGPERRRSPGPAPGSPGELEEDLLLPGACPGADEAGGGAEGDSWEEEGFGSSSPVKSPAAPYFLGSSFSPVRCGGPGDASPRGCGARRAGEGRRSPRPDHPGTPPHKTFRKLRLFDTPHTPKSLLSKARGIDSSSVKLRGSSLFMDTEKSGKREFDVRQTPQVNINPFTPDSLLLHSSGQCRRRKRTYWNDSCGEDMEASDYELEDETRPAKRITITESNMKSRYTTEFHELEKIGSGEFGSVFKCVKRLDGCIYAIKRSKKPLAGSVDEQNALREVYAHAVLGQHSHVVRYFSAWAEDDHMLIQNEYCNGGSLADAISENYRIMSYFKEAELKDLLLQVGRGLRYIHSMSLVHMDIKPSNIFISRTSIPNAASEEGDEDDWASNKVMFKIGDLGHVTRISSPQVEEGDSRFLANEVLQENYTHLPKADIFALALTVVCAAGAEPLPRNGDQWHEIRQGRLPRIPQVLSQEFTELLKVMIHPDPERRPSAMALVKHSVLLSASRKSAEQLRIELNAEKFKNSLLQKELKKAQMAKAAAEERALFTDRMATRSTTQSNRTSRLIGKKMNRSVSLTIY
T2 sequence (Q96SW2 whole entry): as the sequence (Q96SW2 whole entry) above
T2 sequence (Q16531 whole entry partner): as the sequence (Q16531 whole entry partner) above
T1 sequence (Q9UKS7 whole entry): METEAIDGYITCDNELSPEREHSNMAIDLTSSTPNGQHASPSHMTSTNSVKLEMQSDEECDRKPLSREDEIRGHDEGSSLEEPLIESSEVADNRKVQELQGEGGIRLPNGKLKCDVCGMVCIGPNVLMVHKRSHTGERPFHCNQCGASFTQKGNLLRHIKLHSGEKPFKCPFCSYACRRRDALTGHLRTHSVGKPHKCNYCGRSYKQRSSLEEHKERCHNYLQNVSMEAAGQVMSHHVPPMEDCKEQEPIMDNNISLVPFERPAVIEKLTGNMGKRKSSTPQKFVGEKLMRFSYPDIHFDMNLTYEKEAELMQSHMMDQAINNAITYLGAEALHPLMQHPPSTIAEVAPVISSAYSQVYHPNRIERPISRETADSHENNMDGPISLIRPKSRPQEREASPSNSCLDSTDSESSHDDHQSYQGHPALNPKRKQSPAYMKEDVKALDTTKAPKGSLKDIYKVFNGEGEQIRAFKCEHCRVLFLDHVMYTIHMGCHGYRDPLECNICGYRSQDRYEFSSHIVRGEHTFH
T1 sequence (Q96SW2 whole entry): as the sequence (Q96SW2 whole entry) above
T1 sequence (Q16531 whole entry partner): as the sequence (Q16531 whole entry partner) above

As to `O=C1CCN(N2Cc3cc(CN4CCC(c5ccccc5Cl)CC4)ccc3C2=O)C(=O)N1` [GT-06887, 1-(5-((4-(2-chlorophenyl)piperidin-1-yl)methyl)-1-oxoisoindolin-2-yl)dihydropyrimidine-2,4(1H,3H)-dione], the “IKZF2 substrate protein remaining %” value on IKZF2 is recorded as “A ("A" is defined as 0% ≤ substrate protein remaining % ≤ 80%)”. The “WEE1 substrate protein remaining %” value at WEE1 is listed as “A ("A" is defined as 0% ≤ substrate protein remaining % ≤ 80%)”. The “GSPT1 substrate protein remaining %” value on GSPT1 is recorded as “A ("A" is defined as 0% ≤ substrate protein remaining % ≤ 80%)”. Moreover, the “IKZF3 substrate protein remaining %” value on IKZF3 is “B ("B" is defined as 80%< substrate protein remaining %≤ 100%)”. In addition, the “IKZF1 substrate protein remaining %” value at IKZF1 is on record as “B ("B" is defined as 80%< substrate protein remaining %≤ 100%)”. Besides, the “CK1α substrate protein remaining %” value at CK1α is on record as “B ("B" is defined as 80%< substrate protein remaining %≤ 100%)”.
With `O=C1CCN(N2Cc3cc(CN4CCC(c5ccc(Cl)cc5)CC4)ccc3C2=O)C(=O)N1` [GT-06888, 1-(5-((4-(4-chlorophenyl)piperidin-1-yl)methyl)-1-oxoisoindolin-2-yl)dihydropyrimidine-2,4(1H,3H)-dione], the “IKZF2 substrate protein remaining %” value at IKZF2 is “A ("A" is defined as 0% ≤ substrate protein remaining % ≤ 80%)”. For the same compound, the “WEE1 substrate protein remaining %” value at WEE1 was “A ("A" is defined as 0% ≤ substrate protein remaining % ≤ 80%)”. The “GSPT1 substrate protein remaining %” value on GSPT1 is “A ("A" is defined as 0% ≤ substrate protein remaining % ≤ 80%)”. Further, the “IKZF3 substrate protein remaining %” value on IKZF3 is “B ("B" is defined as 80%< substrate protein remaining %≤ 100%)”. In addition, the “IKZF1 substrate protein remaining %” value at IKZF1 is given as “B ("B" is defined as 80%< substrate protein remaining %≤ 100%)”. On CK1α, the “CK1α substrate protein remaining %” value is “B ("B" is defined as 80%< substrate protein remaining %≤ 100%)”.
Consider `O=C1CCN(N2Cc3cc(CN4CCC(c5ccccc5F)CC4)ccc3C2=O)C(=O)N1` [GT-06889, 1-(5-((4-(2-fluorophenyl)piperidin-1-yl)methyl)-1-oxoisoindolin-2-yl)dihydropyrimidine-2,4(1H,3H)-dione], for which the “IKZF2 substrate protein remaining %” value at IKZF2 is “A ("A" is defined as 0% ≤ substrate protein remaining % ≤ 80%)”. For the same compound, on WEE1, the “WEE1 substrate protein remaining %” value is recorded as “A ("A" is defined as 0% ≤ substrate protein remaining % ≤ 80%)”. In addition, on GSPT1, the “GSPT1 substrate protein remaining %” value is given as “A ("A" is defined as 0% ≤ substrate protein remaining % ≤ 80%)”. Besides, at IKZF3, the “IKZF3 substrate protein remaining %” value is reported as “B ("B" is defined as 80%< substrate protein remaining %≤ 100%)”. At IKZF1, the “IKZF1 substrate protein remaining %” value is recorded as “B ("B" is defined as 80%< substrate protein remaining %≤ 100%)”. The “CK1α substrate protein remaining %” value at CK1α was “B ("B" is defined as 80%< substrate protein remaining %≤ 100%)”.
In the case of `O=C1CCN(N2Cc3cc(CN4CCC(c5ccc(F)cc5)CC4)ccc3C2=O)C(=O)N1` [GT-06890, 1-(5-((4-(4-fluorophenyl)piperidin-1-yl)methyl)-1-oxoisoindolin-2-yl)dihydropyrimidine-2,4(1H,3H)-dione], the “IKZF2 substrate protein remaining %” value on IKZF2 was “B ("B" is defined as 80%< substrate protein remaining %≤ 100%)”. Moreover, the “WEE1 substrate protein remaining %” value on WEE1 is “A ("A" is defined as 0% ≤ substrate protein remaining % ≤ 80%)”. For the same compound, the “GSPT1 substrate protein remaining %” value on GSPT1 is “A ("A" is defined as 0% ≤ substrate protein remaining % ≤ 80%)”. The “IKZF3 substrate protein remaining %” value at IKZF3 is reported as “B ("B" is defined as 80%< substrate protein remaining %≤ 100%)”. Further, on IKZF1, the “IKZF1 substrate protein remaining %” value was “B ("B" is defined as 80%< substrate protein remaining %≤ 100%)”. Further, on CK1α, the “CK1α substrate protein remaining %” value is “B ("B" is defined as 80%< substrate protein remaining %≤ 100%)”.
In the case of `O=C1CCN(N2Cc3cc(CN4CCC(c5ccccc5C(F)(F)F)CC4)ccc3C2=O)C(=O)N1` [GT-06891, 1-(1-oxo-5-((4-(2-(trifluoromethyl)phenyl)piperidin-1-yl)methyl)isoindolin-2-yl)dihydropyrimidine-2,4(1H,3H)-dione], the “IKZF2 substrate protein remaining %” value at IKZF2 is “A ("A" is defined as 0% ≤ substrate protein remaining % ≤ 80%)”. For the same compound, the “WEE1 substrate protein remaining %” value at WEE1 is “A ("A" is defined as 0% ≤ substrate protein remaining % ≤ 80%)”. Also, at GSPT1, the “GSPT1 substrate protein remaining %” value is “A ("A" is defined as 0% ≤ substrate protein remaining % ≤ 80%)”. The “IKZF3 substrate protein remaining %” value at IKZF3 was “B ("B" is defined as 80%< substrate protein remaining %≤ 100%)”. The “IKZF1 substrate protein remaining %” value at IKZF1 is on record as “B ("B" is defined as 80%< substrate protein remaining %≤ 100%)”. Moreover, the “CK1α substrate protein remaining %” value at CK1α was “B ("B" is defined as 80%< substrate protein remaining %≤ 100%)”.
On to `O=C1CCN(N2C(=O)c3ccc(CN4CCC(c5cccc(F)c5Cl)CC4)cc3C2=O)C(=O)N1` [GT-06895, 5-((4-(2-chloro-3-fluorophenyl)piperidin-1-yl)methyl)-2-(2,4-dioxotetrahydropyrimidin-1(2H)-yl)isoindoline-1,3-dione], for which the “IKZF2 substrate protein remaining %” value on IKZF2 is “B ("B" is defined as 80%< substrate protein remaining %≤ 100%)”. In addition, on WEE1, the “WEE1 substrate protein remaining %” value is given as “B ("B" is defined as 80%< substrate protein remaining %≤ 100%)”. The “GSPT1 substrate protein remaining %” value on GSPT1 is “B ("B" is defined as 80%< substrate protein remaining %≤ 100%)”. The “IKZF3 substrate protein remaining %” value on IKZF3 is given as “B ("B" is defined as 80%< substrate protein remaining %≤ 100%)”. Moreover, the “IKZF1 substrate protein remaining %” value on IKZF1 is recorded as “A ("A" is defined as 0% ≤ substrate protein remaining % ≤ 80%)”. The “CK1α substrate protein remaining %” value on CK1α is “B ("B" is defined as 80%< substrate protein remaining %≤ 100%)”.
Regarding `O=C1CCN(N2C(=O)c3ccc(CN4CC=C(c5cccc(F)c5Cl)CC4)cc3C2=O)C(=O)N1` [GT-06896, 5-((4-(2-chloro-3-fluorophenyl)-3,6-dihydropyridin-1(2H)-yl)methyl)-2-(2,4-dioxotetrahydropyrimidin-1(2H)-yl)isoindoline-1,3-dione], at IKZF2, the “IKZF2 substrate protein remaining %” value is given as “B ("B" is defined as 80%< substrate protein remaining %≤ 100%)”. The “WEE1 substrate protein remaining %” value at WEE1 is “B ("B" is defined as 80%< substrate protein remaining %≤ 100%)”. Besides, the “GSPT1 substrate protein remaining %” value on GSPT1 was “B ("B" is defined as 80%< substrate protein remaining %≤ 100%)”. Besides, the “IKZF3 substrate protein remaining %” value on IKZF3 is reported as “B ("B" is defined as 80%< substrate protein remaining %≤ 100%)”. In addition, the “IKZF1 substrate protein remaining %” value at IKZF1 is “A ("A" is defined as 0% ≤ substrate protein remaining % ≤ 80%)”. Besides, at CK1α, the “CK1α substrate protein remaining %” value is listed as “B ("B" is defined as 80%< substrate protein remaining %≤ 100%)”.
For `O=C1CCN(N2C(=O)c3ccc(CN4CCN(c5ccc(F)cn5)CC4)cc3C2=O)C(=O)N1` [GT-06965, 2-(2,4-dioxotetrahydropyrimidin-1(2H)-yl)-5-((4-(5-fluoropyridin-2-yl)piperazin-1-yl)methyl)isoindoline-1,3-dione], the “IKZF2 substrate protein remaining %” value on IKZF2 is recorded as “A ("A" is defined as 0% ≤ substrate protein remaining % ≤ 80%)”. Also, at WEE1, the “WEE1 substrate protein remaining %” value is given as “B ("B" is defined as 80%< substrate protein remaining %≤ 100%)”. Also, on GSPT1, the “GSPT1 substrate protein remaining %” value is reported as “B ("B" is defined as 80%< substrate protein remaining %≤ 100%)”. Besides, the “IKZF3 substrate protein remaining %” value at IKZF3 is “B ("B" is defined as 80%< substrate protein remaining %≤ 100%)”. At IKZF1, the “IKZF1 substrate protein remaining %” value was “B ("B" is defined as 80%< substrate protein remaining %≤ 100%)”. For the same compound, the “CK1α substrate protein remaining %” value on CK1α is on record as “B ("B" is defined as 80%< substrate protein remaining %≤ 100%)”.
As to `O=C1CCN(N2C(=O)c3ccc(CN4CCN(c5ccc(C(F)(F)F)cn5)CC4)cc3C2=O)C(=O)N1` [GT-06968, 2-(2,4-dioxotetrahydropyrimidin-1(2H)-yl)-5-((4-(5-(trifluoromethyl)pyridin-2-yl)piperazin-1-yl)methyl)isoindoline-1,3-dione], the “IKZF2 substrate protein remaining %” value on IKZF2 is “A ("A" is defined as 0% ≤ substrate protein remaining % ≤ 80%)”. The “WEE1 substrate protein remaining %” value on WEE1 is given as “A ("A" is defined as 0% ≤ substrate protein remaining % ≤ 80%)”. Moreover, the “GSPT1 substrate protein remaining %” value on GSPT1 was “B ("B" is defined as 80%< substrate protein remaining %≤ 100%)”. Further, the “IKZF3 substrate protein remaining %” value at IKZF3 is “B ("B" is defined as 80%< substrate protein remaining %≤ 100%)”. In addition, the “IKZF1 substrate protein remaining %” value on IKZF1 is “B ("B" is defined as 80%< substrate protein remaining %≤ 100%)”. Further, the “CK1α substrate protein remaining %” value at CK1α was “B ("B" is defined as 80%< substrate protein remaining %≤ 100%)”.
Consider `O=C1CCN(N2C(=O)c3ccc(CN4CCN(c5ncc(Cl)cc5Cl)CC4)cc3C2=O)C(=O)N1` [GT-06969, 5-((4-(3,5-dichloropyridin-2-yl)piperazin-1-yl)methyl)-2-(2,4-dioxotetrahydropyrimidin-1(2H)-yl)isoindoline-1,3-dione], for which the “IKZF2 substrate protein remaining %” value on IKZF2 is given as “A ("A" is defined as 0% ≤ substrate protein remaining % ≤ 80%)”. Also, the “WEE1 substrate protein remaining %” value at WEE1 is given as “A ("A" is defined as 0% ≤ substrate protein remaining % ≤ 80%)”. Further, the “GSPT1 substrate protein remaining %” value at GSPT1 is recorded as “B ("B" is defined as 80%< substrate protein remaining %≤ 100%)”. Besides, on IKZF3, the “IKZF3 substrate protein remaining %” value was “B ("B" is defined as 80%< substrate protein remaining %≤ 100%)”. Further, the “IKZF1 substrate protein remaining %” value at IKZF1 is on record as “B ("B" is defined as 80%< substrate protein remaining %≤ 100%)”. Besides, the “CK1α substrate protein remaining %” value on CK1α was “B ("B" is defined as 80%< substrate protein remaining %≤ 100%)”.

The values are drawn from patent EP4722207A1, “OXOISOINDOLINYL-SUBSTITUTED TETRAHYDROPYRIMIDINEDIONE DERIVATIVE AND USE THEREOF” (Gluetacs Therapeutics (Shanghai) Co., Ltd., priority 2023, dated 2024).
